Experiment: xn = mol fraction of the nth substance listed
Conditions: Liquid, Vibrating tube method

CCCCCCCCCC [decane] + CCO
Conditions	mass density [kg/m3]
313.09 K, 11000 kPa, x2 = 0.0937	723.62
313.09 K, 12000 kPa, x2 = 0.0937	724.43
313.09 K, 13000 kPa, x2 = 0.0937	725.25
313.09 K, 14000 kPa, x2 = 0.0937	726.06
313.09 K, 15000 kPa, x2 = 0.0937	726.84
313.09 K, 16000 kPa, x2 = 0.0937	727.61
313.09 K, 17000 kPa, x2 = 0.0937	728.37
313.09 K, 18000 kPa, x2 = 0.0937	729.11
313.09 K, 19000 kPa, x2 = 0.0937	729.84
313.09 K, 20000 kPa, x2 = 0.0937	730.54
313.11 K, 1000 kPa, x2 = 0.2507	717.71
313.11 K, 2000 kPa, x2 = 0.2507	718.61
313.11 K, 3000 kPa, x2 = 0.2507	719.5
313.11 K, 4000 kPa, x2 = 0.2507	720.38
313.11 K, 5000 kPa, x2 = 0.2507	721.25
313.11 K, 6000 kPa, x2 = 0.2507	722.07
313.11 K, 7000 kPa, x2 = 0.2507	722.9
313.11 K, 8000 kPa, x2 = 0.2507	723.74
313.11 K, 9000 kPa, x2 = 0.2507	724.57
313.11 K, 10000 kPa, x2 = 0.2507	725.41
313.11 K, 11000 kPa, x2 = 0.2507	726.25
313.11 K, 12000 kPa, x2 = 0.2507	727.08
313.11 K, 13000 kPa, x2 = 0.2507	727.91
313.11 K, 14000 kPa, x2 = 0.2507	728.72
313.11 K, 15000 kPa, x2 = 0.2507	729.52
313.11 K, 16000 kPa, x2 = 0.2507	730.3
313.11 K, 17000 kPa, x2 = 0.2507	731.07
313.11 K, 18000 kPa, x2 = 0.2507	731.81
313.11 K, 19000 kPa, x2 = 0.2507	732.55
313.11 K, 20000 kPa, x2 = 0.2507	733.26
322.98 K, 1000 kPa, x2 = 0.4963	715.95
322.98 K, 2000 kPa, x2 = 0.4963	716.92
322.98 K, 3000 kPa, x2 = 0.4963	717.88
322.98 K, 4000 kPa, x2 = 0.4963	718.83
322.98 K, 5000 kPa, x2 = 0.4963	719.75
322.98 K, 6000 kPa, x2 = 0.4963	720.66
322.98 K, 7000 kPa, x2 = 0.4963	721.56
322.98 K, 8000 kPa, x2 = 0.4963	722.48
322.98 K, 9000 kPa, x2 = 0.4963	723.39
322.98 K, 10000 kPa, x2 = 0.4963	724.3
322.98 K, 11000 kPa, x2 = 0.4963	725.2
322.98 K, 12000 kPa, x2 = 0.4963	726.08
322.98 K, 13000 kPa, x2 = 0.4963	726.98
322.98 K, 14000 kPa, x2 = 0.4963	727.85
322.98 K, 15000 kPa, x2 = 0.4963	728.71
322.98 K, 16000 kPa, x2 = 0.4963	729.56
322.98 K, 17000 kPa, x2 = 0.4963	730.39
322.98 K, 18000 kPa, x2 = 0.4963	731.19
322.98 K, 19000 kPa, x2 = 0.4963	731.99
322.98 K, 20000 kPa, x2 = 0.4963	732.78
322.99 K, 1000 kPa, x2 = 0.0937	707.2
322.99 K, 1000 kPa, x2 = 0.9014	745.03
322.99 K, 2000 kPa, x2 = 0.0937	708.15
322.99 K, 2000 kPa, x2 = 0.9014	746.04
322.99 K, 3000 kPa, x2 = 0.0937	709.09
322.99 K, 3000 kPa, x2 = 0.9014	747.05
322.99 K, 4000 kPa, x2 = 0.0937	710.01
322.99 K, 4000 kPa, x2 = 0.9014	748.04
322.99 K, 5000 kPa, x2 = 0.0937	710.92
322.99 K, 5000 kPa, x2 = 0.9014	749.01
322.99 K, 6000 kPa, x2 = 0.0937	711.82
322.99 K, 6000 kPa, x2 = 0.9014	749.97
322.99 K, 7000 kPa, x2 = 0.0937	712.7
322.99 K, 7000 kPa, x2 = 0.9014	750.92
322.99 K, 8000 kPa, x2 = 0.0937	713.57
322.99 K, 8000 kPa, x2 = 0.9014	751.88
322.99 K, 9000 kPa, x2 = 0.0937	714.44
322.99 K, 9000 kPa, x2 = 0.9014	752.84
322.99 K, 10000 kPa, x2 = 0.0937	715.32
322.99 K, 10000 kPa, x2 = 0.9014	753.79
322.99 K, 11000 kPa, x2 = 0.0937	716.18
322.99 K, 11000 kPa, x2 = 0.9014	754.74
322.99 K, 12000 kPa, x2 = 0.0937	717.04
322.99 K, 12000 kPa, x2 = 0.9014	755.67
322.99 K, 13000 kPa, x2 = 0.0937	717.9
322.99 K, 13000 kPa, x2 = 0.9014	756.6
322.99 K, 14000 kPa, x2 = 0.0937	718.73
322.99 K, 14000 kPa, x2 = 0.9014	757.52
322.99 K, 15000 kPa, x2 = 0.0937	719.56
322.99 K, 15000 kPa, x2 = 0.9014	758.41
322.99 K, 16000 kPa, x2 = 0.0937	720.37
322.99 K, 16000 kPa, x2 = 0.9014	759.31
322.99 K, 17000 kPa, x2 = 0.0937	721.18
322.99 K, 17000 kPa, x2 = 0.9014	760.18
322.99 K, 18000 kPa, x2 = 0.0937	721.95
322.99 K, 18000 kPa, x2 = 0.9014	761.04
322.99 K, 19000 kPa, x2 = 0.0937	722.72
322.99 K, 19000 kPa, x2 = 0.9014	761.88
322.99 K, 20000 kPa, x2 = 0.0937	723.46
322.99 K, 20000 kPa, x2 = 0.9014	762.71
